Source: PubChem BioAssay AID192 (DTP/NCI, 2004)
Where “and” joins values, the source holds several entries; their conditions need not be identical. Equal entries are not always repeated. Inconclusive results and toxic doses are left out. How the source made its calls: active means survival T/C of 150% or more; inactive means T/C below 125% in these data.

Test system: BDF1 mice, B16 melanoma ip, median survival T/C
Assay: NCI In Vivo Anticancer Drug Screen. Data for tumor model B16 Melanoma (intraperitoneal) in B6D2F1 (BDF1) mice
Conditions: endpoint: median survival time, higher = longer survival
How it was run: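 In this screen, activity was judged from survival or tumor size in treated versus vehicle-treated tumor-bearing mice, reported as T/C.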

[1] = dose: 6.25 mg/kg/injection, schedule: Q01DX009 (ip), vehicle: saline
[2] = dose: 12.5 mg/kg/injection, schedule: Q01DX009 (ip), vehicle: saline
[3] = dose: 25.0 mg/kg/injection, schedule: Q01DX009 (ip), vehicle: saline
[4] = dose: 50.0 mg/kg/injection, schedule: Q01DX009 (ip), vehicle: saline
[5] = dose: 50.0 mg/kg/injection, schedule: Q01DX009 (ip), vehicle: Klucel (hydroxypropylcellulose) (HPC)
[6] = dose: 100.0 mg/kg/injection, schedule: Q01DX009 (ip), vehicle: Klucel (hydroxypropylcellulose) (HPC)
[7] = dose: 200.0 mg/kg/injection, schedule: Q01DX009 (ip), vehicle: Klucel (hydroxypropylcellulose) (HPC)
[8] = dose: 400.0 mg/kg/injection, schedule: Q01DX009 (ip), vehicle: Klucel (hydroxypropylcellulose) (HPC)

Measured: T/C

CN(C)/N=N/c1nc[nH]c1C(N)=O
inactive: [1] 110 % of control | dose: 6.25 mg/kg/injection, schedule: Q01DX009 (ip), vehicle: steriod suspending solution 105 % of control | dose: 12.5 mg/kg/injection, schedule: Q01DX009 (ip), vehicle: carboxymethylcellulose (CMC) 121 % of control | [2] 115 % of control | dose: 12.5 mg/kg/injection, schedule: Q01DX009 (ip), vehicle: steriod suspending solution 107 % of control | dose: 13.0 mg/kg/injection, schedule: Q01DX009 (ip), vehicle: saline with Tween-80 114 % of control | dose: 18.75 mg/kg/injection, schedule: Q01DX009 (ip), vehicle: Klucel (hydroxypropylcellulose) (HPC) 101 % of control | dose: 18.8 mg/kg/injection, schedule: Q01DX009 (ip), vehicle: saline 105 % of control | dose: 18.8 mg/kg/injection, schedule: Q04DX005 (ip), vehicle: saline 94 % of control | dose: 25.0 mg/kg/injection, schedule: Q01DX009 (ip), vehicle: carboxymethylcellulose (CMC) 115 % of control | dose: 25.0 mg/kg/injection, schedule: Q01DX009 (ip), vehicle: distilled water + Tween-80 117 % of control | dose: 25.0 mg/kg/injection, schedule: Q01DX009 (ip), vehicle: saline with Tween-80 107 % of control | [3] 102 % of control and 110 % of control and 114 % of control | dose: 25.0 mg/kg/injection, schedule: Q01DX009 (ip), vehicle: steriod suspending solution 115 % of control | dose: 25.0 mg/kg/injection, schedule: Q01DX017 (ip), vehicle: saline 116 % of control | dose: 25.0 mg/kg/injection, schedule: Q04DX003 (ip), vehicle: saline with Tween-80 104 % of control and 105 % of control and 115 % of control | dose: 27.5 mg/kg/injection, schedule: Q01DX009 (ip), vehicle: saline 100 % of control | dose: 37.0 mg/kg/injection, schedule: Q01DX009 (ip), vehicle: saline with Tween-80 112 % of control | dose: 37.5 mg/kg/injection, schedule: Q04DX003 (ip), vehicle: saline 100 % of control | dose: 37.5 mg/kg/injection, schedule: Q04DX005 (ip), vehicle: saline 97 % of control | dose: 48.0 mg/kg/injection, schedule: Q01DX005 (ip), vehicle: Klucel (hydroxypropylcellulose) (HPC) 99 % of control | dose: 50.0 mg/kg/injection, schedule: Q01DX009 (ip), vehicle: carboxymethylcellulose (CMC) 110 % of control | dose: 50.0 mg/kg/injection, schedule: Q01DX009 (ip), vehicle: saline with Tween-80 124 % of control | [4] 105 % of control and 114 % of control and 121 % of control | dose: 50.0 mg/kg/injection, schedule: Q01DX009 (ip), vehicle: steriod suspending solution 115 % of control | dose: 50.0 mg/kg/injection, schedule: Q01DX017 (ip), vehicle: saline 114 % of control | dose: 50.0 mg/kg/injection, schedule: Q04DX003 (ip), vehicle: saline with Tween-80 115 % of control | dose: 72.0 mg/kg/injection, schedule: Q01DX005 (ip), vehicle: Klucel (hydroxypropylcellulose) (HPC) 101 % of control | dose: 75.0 mg/kg/injection, schedule: Q01DX001 (ip), vehicle: saline 114 % of control | dose: 75.0 mg/kg/injection, schedule: Q04DX003 (ip), vehicle: saline 107 % of control | dose: 75.0 mg/kg/injection, schedule: Q04DX005 (ip), vehicle: saline 107 % of control | dose: 100.0 mg/kg/injection, schedule: Q01DX009 (ip), vehicle: carboxymethylcellulose (CMC) 105 % of control | dose: 100.0 mg/kg/injection, schedule: Q01DX009 (ip), vehicle: distilled water + Tween-80 124 % of control | dose: 100.0 mg/kg/injection, schedule: Q01DX009 (ip), vehicle: saline with Tween-80 123 % of control | dose: 100.0 mg/kg/injection, schedule: Q01DX009 (ip), vehicle: saline 110 % of control (2×) and 119 % of control | dose: 100.0 mg/kg/injection, schedule: Q01DX009 (ip), vehicle: steriod suspending solution 115 % of control | dose: 100.0 mg/kg/injection, schedule: Q01DX017 (ip), vehicle: saline 123 % of control | dose: 108.0 mg/kg/injection, schedule: Q01DX005 (ip), vehicle: Klucel (hydroxypropylcellulose) (HPC) 98 % of control | dose: 130.0 mg/kg/injection, schedule: Q01DX009 (ip), vehicle: DMSO 105 % of control | dose: 148.0 mg/kg/injection, schedule: Q04DX003 (ip), vehicle: saline with Tween-80 110 % of control | dose: 150.0 mg/kg/injection, schedule: Q01DX001 (ip), vehicle: saline 112 % of control | dose: 150.0 mg/kg/injection, schedule: Q04DX003 (ip), vehicle: saline 112 % of control | dose: 160.0 mg/kg/injection, schedule: Q01DX005 (ip), vehicle: Klucel (hydroxypropylcellulose) (HPC) 101 % of control | dose: 166.7 mg/kg/injection, schedule: Q01DX009 (ip), vehicle: saline with Tween-80 77 % of control | dose: 200.0 mg/kg/injection, schedule: Q01DX009 (ip), vehicle: distilled water + Tween-80 121 % of control | dose: 200.0 mg/kg/injection, schedule: Q01DX009 (ip), vehicle: saline 117 % of control and 118 % of control | dose: 200.0 mg/kg/injection, schedule: Q04DX003 (ip), vehicle: saline with Tween-80 109 % of control | dose: 216.0 mg/kg/injection, schedule: Q01DX009 (ip), vehicle: DMSO 109 % of control | dose: 222.0 mg/kg/injection, schedule: Q04DX003 (ip), vehicle: saline with Tween-80 115 % of control | dose: 240.0 mg/kg/injection, schedule: Q01DX005 (ip), vehicle: Klucel (hydroxypropylcellulose) (HPC) 99 % of control | dose: 277.8 mg/kg/injection, schedule: Q01DX009 (ip), vehicle: saline with Tween-80 53 % of control | dose: 300.0 mg/kg/injection, schedule: Q01DX001 (ip), vehicle: saline 102 % of control | dose: 300.0 mg/kg/injection, schedule: Q04DX003 (ip), vehicle: saline 114 % of control | dose: 300.0 mg/kg/injection, schedule: Q04DX005 (ip), vehicle: saline 115 % of control | dose: 333.0 mg/kg/injection, schedule: Q04DX003 (ip), vehicle: saline with Tween-80 124 % of control | dose: 500.0 mg/kg/injection, schedule: Q04DX003 (ip), vehicle: saline with Tween-80 114 % of control | dose: 600.0 mg/kg/injection, schedule: Q01DX001 (ip), vehicle: saline 107 % of control | dose: 600.0 mg/kg/injection, schedule: Q04DX003 (ip), vehicle: saline 95 % of control | dose: 750.0 mg/kg/injection, schedule: Q04DX003 (ip), vehicle: saline with Tween-80 124 % of control | dose: 800.0 mg/kg/injection, schedule: Q04DX003 (ip), vehicle: saline with Tween-80 45 % of control | dose: 1200.0 mg/kg/injection, schedule: Q01DX001 (ip), vehicle: saline 117 % of control

N/C(=N\N=C\c1ccc(-c2ccccc2)cc1)N[N+](=O)[O-]
inactive: dose: 25.0 mg/kg/injection, schedule: Q01DX009 (ip), vehicle: Klucel (hydroxypropylcellulose) (HPC) 93 % of control | [5] 90 % of control | [6] 93 % of control | [7] 86 % of control

COc1cc2c(cc1OC)C(CN)C2 (centres undefined)
inactive: [5] 94 % of control | [6] 97 % of control

O=[N+]([O-])/C=C/c1ccc([N+](=O)[O-])cc1Cl
inactive: dose: 0.18 mg/kg/injection, schedule: Q01DX009 (ip), vehicle: Klucel (hydroxypropylcellulose) (HPC) 111 % of control | dose: 0.37 mg/kg/injection, schedule: Q01DX009 (ip), vehicle: Klucel (hydroxypropylcellulose) (HPC) 96 % of control | dose: 0.75 mg/kg/injection, schedule: Q01DX009 (ip), vehicle: Klucel (hydroxypropylcellulose) (HPC) 87 % of control and 90 % of control

O=C(Cl)c1ccccc1S(=O)(=O)N(CCOc1ccccc1)c1ccccc1
inactive: [6] 90 % of control | [7] 96 % of control | [8] 87 % of control

CC(C)CCC(C)C1CCC2C3CC([N+](=O)[O-])=C4CC(OC(=O)c5ccccc5)CCC4(C)C3CCC12C (centres undefined)
inactive: [6] 105 % of control | [7] 110 % of control | [8] 105 % of control

COC(C/C=C\C=C\CC/C=C/CC(C)/C=C/C(=C\C(=O)O)CC(=O)O)/C(C)=C\C=C(/C)C(=O)O (centres undefined)
inactive: dose: 0.05 mg/kg/injection, schedule: Q01DX009 (ip), vehicle: saline 108 % of control | dose: 0.1 mg/kg/injection, schedule: Q01DX009 (ip), vehicle: saline 107 % of control | dose: 0.2 mg/kg/injection, schedule: Q01DX009 (ip), vehicle: saline 107 % of control | dose: 0.4 mg/kg/injection, schedule: Q01DX009 (ip), vehicle: saline 94 % of control

C=C1CC2(OC1=O)C(=O)N(C)c1ccc(I)cc12 (centres undefined)
inactive: [1] 100 % of control and 104 % of control | [2] 101 % of control and 112 % of control | [3] 95 % of control and 104 % of control | [4] 110 % of control
